Patent US20100331315A1, “RHODANINES AND RELATED HETEROCYCLES AS KINASE INHIBITORS” (priority 2009, published 2010)
Read-outs that look alike come from different tables or passages of the source.

How the values were obtained:
recombinant human CK2 = biological target: T1, recombinant human CK2 (Homo sapiens, UniProt P68400); experiment: CK2 assay (cell-free, 33P-ATP filter plate); assay type: biochemical
T1 construct: purchased Upstate
Protocol: Modulatory activity of compounds described herein was assessed in vitro in cell-free CK2 assays by the following method.
Test compounds in aqueous solution were added at a volume of 10 microliters, to a reaction mixture comprising 10 microliters Assay Dilution Buffer (ADB; 20 mM MOPS, pH 7.2, 25 mM beta-glycerolphosphate, 5 mM EGTA, 1 mM sodium orthovanadate and 1 mM dithiothreitol), 10 microliters of substrate peptide (RRRDDDSDDD, dissolved in ADB at a concentration of 1 mM), 10 microliters of recombinant human CK2 (25 ng dissolved in ADB; Upstate). Reactions were initiated by the addition of 10 microliters of ATP Solution (90% 75 mM MgCl2, 75 micromolar ATP dissolved in ADB; 10% [γ-^33P]ATP (stock 1 mCi/100 μl; 3000 Ci/mmol (Perkin Elmer) and maintained for 10 minutes at 30 degrees C. The reactions were quenched with 100 microliters of 0.75% phosphoric acid, then transferred to and filtered through a phosphocellulose filter plate (Millipore). After washing each well 5 times with 0.75% phosphoric acid, the plate was dried under vacuum for 5 min and, following the addition of 15 ul of scintillation fluid to each well, the residual radioactivity was measured using a Wallac luminescence counter.

recombinant human PIM2 = recombinant human PIM2 (Homo sapiens, UniProt Q9P1W9); experiment: PIM-2 assay (33P-ATP filter plate); assay type: biochemical
recombinant human PIM2, sequence (Q9P1W9 whole entry): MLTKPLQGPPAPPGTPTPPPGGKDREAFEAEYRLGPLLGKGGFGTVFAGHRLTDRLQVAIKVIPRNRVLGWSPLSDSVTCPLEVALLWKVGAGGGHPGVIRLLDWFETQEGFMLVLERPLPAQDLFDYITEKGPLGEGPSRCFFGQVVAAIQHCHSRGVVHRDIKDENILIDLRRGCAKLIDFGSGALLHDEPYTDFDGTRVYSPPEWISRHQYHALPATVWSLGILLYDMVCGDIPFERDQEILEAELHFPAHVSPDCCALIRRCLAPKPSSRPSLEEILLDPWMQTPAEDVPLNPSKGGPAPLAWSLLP
Protocol: PIM-2 Assay Method: Test compounds dissolved and diluted in DMSO (2 μl) were added to a reaction mixture comprising 10 μl of 5× Reaction Buffer (40 mM MOPS pH 7.0, 5 mM EDTA), 10 μl of recombinant human PIM2 solution (4 ng PIM-2 dissolved in dilution buffer (20 mM MOPS pH 7.0; EDTA 1 mM; 5% Glycerol; 0.01% Brij 35; […]; […] 2-mercaptoethanol; 1 mg/ml BSA)) and 8 ul of water. Reactions were initiated by the addition of 10 ul of ATP Solution (49% (15 mM MgCl2; 75 uM ATP) 1% ([γ-^33P]ATP: Stock 1 mCi/1000; 3000Ci/mmol (Perkin Elmer)) and 10 ul of substrate peptide solution (RSRSSYPAGT, dissolved in water at a concentration of 1 mM), Reactions were maintained for 10 min at 30° C. The reactions were quenched with 100 ul of 0.75% Phosphoric acid, then transferred to and filtered through a Phosphocellulose filter plate (Millipore, MSPH-N6B-50). After washing each well 4 times with 0.75% Phosphoric acid, scintillation fluid (20 uL) was added to each well and the residual radioactivity was measured using a Wallac luminescence counter.

recombinant PIM-1 = recombinant PIM-1 (Homo sapiens, UniProt P11309); experiment: PIM-1 assay (33P-ATP filter plate); assay type: biochemical; conditions: read-out: PIM1: IC50
recombinant PIM-1, sequence (P11309 whole entry): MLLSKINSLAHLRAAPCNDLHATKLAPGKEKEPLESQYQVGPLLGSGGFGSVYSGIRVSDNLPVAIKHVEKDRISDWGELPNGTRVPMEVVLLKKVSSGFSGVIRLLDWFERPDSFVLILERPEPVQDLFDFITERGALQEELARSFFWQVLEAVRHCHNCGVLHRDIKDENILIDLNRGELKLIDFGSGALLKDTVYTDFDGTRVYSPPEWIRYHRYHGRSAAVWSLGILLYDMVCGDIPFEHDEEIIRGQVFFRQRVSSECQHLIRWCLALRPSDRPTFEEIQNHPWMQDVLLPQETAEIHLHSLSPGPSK
Protocol: The following procedure was used to assay the PIM-1 kinase activity of compounds of the invention. Other methods for assaying PIM-1 and other PIM kinases, as well as methods to assay for activity against the various kinases are known in the art.
In a final reaction volume of 50 ul, recombinant PIM-1 (1 ng) was incubated with 12 mM MOPS pH 7.0, 0.4 mM EDTA, glycerol 1%, brij 35 0.002%, 2-mercaptoethanol 0.02%, BSA 0.2 mg/ml, 100 uM KKRNRTLTK, 10 mM MgAcetate, 15 uM ATP, [γ-^33P-ATP] (specific activity approx. 500 cpm/pmol), DMSO 4% and test inhibitor compound at the required concentration. The reaction was initiated by the addition of the Magnesium ATP mixture. After 40 min incubation at 23° C., the reactions were quenched by the addition of 100 ul 0.75% Phosphoric acid, and the labeled peptide collected by filtration through a phosphocellulose filter plate. The plate was washed 4 times with 0.075% phosphoric acid (100 ul per well) and then, after the addition of scintillation fluid (20 ul per well), the counts were measured by a scintillation counter.

K-562 = experiment: Alamar Blue cell proliferation assay, K-562; assay type: cell-based; conditions: Homo sapiens
Protocol: (§1) A representative cell-proliferation assay protocol using Alamar Blue dye (stored at 4° C., use 20 ul per well) is described hereafter.
(§2) a. Split and trypsinize cells.
(§3) b. Count cells using hemocytometer.
(§4) c. Plate 4,000-5,000 cells per well in 100 μl of medium and seed into a 96-well plate according to the following plate layout. Add cell culture medium only to wells B10 to B12. Wells B1 to B9 have cells but no compound added.
(§5) d. Add 100 μl of 2× drug dilution to each well in a concentration shown in the plate layout above. At the same time, add 100 μl of media into the control wells (wells B10 to B12). Total volume is 200 μl/well.
(§6) e. Incubate four (4) days at 37° C., 5% CO2 in a humidified incubator.
(§7) f. Add 20 μl Alamar Blue reagent to each well.
(§8) g. Incubate for four (4) hours at 37° C., 5% CO2 in a humidified incubator.
(§9) h. Record fluorescence at an excitation wavelength of 544 nm and emission wavelength of 590 nm using a microplate reader.
(§10) In the assays, cells are cultured with a test compound for approximately four days, the dye is then added to the cells and fluorescence of […] dye is detected after approximately four hours. Different types of cells can be utilized in the assays (e.g., HCT-116 human colorectal carcinoma cells, PC-3 human prostatic cancer cells and MiaPaca human pancreatic carcinoma cells).

MV-4-11 = experiment: Alamar Blue cell proliferation assay, MV-4-11; assay type: cell-based; conditions: Homo sapiens
Protocol: as §1, §2, §3, §4, §5, §6, §7, §8, §9, §10

MDAMB231 = experiment: Alamar Blue cell proliferation assay, MDAMB231; assay type: cell-based; conditions: Homo sapiens
Protocol: as §1, §2, §3, §4, §5, §6, §7, §8, §9, §10

[1] = tested on: MiaPaca human pancreatic carcinoma cells; experiment: Alamar Blue cell proliferation assay, MiaPaCa; assay type: cell-based
Protocol: as §1, §2, §3, §4, §5, §6, §7, §8, §9, §10

[2] = tested on: PC-3 human prostatic cancer cells; experiment: Alamar Blue cell proliferation assay, PC3; assay type: cell-based
Protocol: as §1, §2, §3, §4, §5, §6, §7, §8, §9, §10

[3] = K562, K-562, Table 1, read-out: AB: K-562 IC50
[4] = MV4-11, MV-4-11, Table 1, read-out: AB: MV-4-11 IC50
[5] = MDA-MB-231, MDAMB231, Table 1, read-out: AB: MDAMB231 IC50
[6] = MIA PaCa-2, Table 1, read-out: AB: MiaPaCa IC50
[7] = PC-3, PC3, Table 1, read-out: AB: PC3
[8] = K562, K-562, Table 2, read-out: AB: K-562 IC50
[9] = MV4-11, MV-4-11, Table 2, read-out: AB: MV-4-11 IC50
[10] = MDA-MB-231, MDAMB231, Table 2, read-out: AB: MDAMB231 IC50
[11] = MIA PaCa-2, Table 2, read-out: AB: MiaPaCa IC50
[12] = PC3, Table 2, read-out: AB: PC3 IC50

T1 sequence (P68400 whole entry): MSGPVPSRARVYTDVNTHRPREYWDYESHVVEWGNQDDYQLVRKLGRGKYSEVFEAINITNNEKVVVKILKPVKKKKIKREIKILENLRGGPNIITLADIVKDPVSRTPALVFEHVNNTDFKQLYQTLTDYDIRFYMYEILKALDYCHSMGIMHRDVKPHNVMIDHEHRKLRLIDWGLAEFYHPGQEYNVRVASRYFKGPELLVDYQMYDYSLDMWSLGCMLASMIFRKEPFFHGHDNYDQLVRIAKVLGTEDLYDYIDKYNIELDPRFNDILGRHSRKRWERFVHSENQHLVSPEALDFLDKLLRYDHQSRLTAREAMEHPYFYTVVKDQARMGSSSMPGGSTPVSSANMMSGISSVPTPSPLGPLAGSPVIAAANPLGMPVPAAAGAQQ
T1 sequence (P67870 whole entry partner): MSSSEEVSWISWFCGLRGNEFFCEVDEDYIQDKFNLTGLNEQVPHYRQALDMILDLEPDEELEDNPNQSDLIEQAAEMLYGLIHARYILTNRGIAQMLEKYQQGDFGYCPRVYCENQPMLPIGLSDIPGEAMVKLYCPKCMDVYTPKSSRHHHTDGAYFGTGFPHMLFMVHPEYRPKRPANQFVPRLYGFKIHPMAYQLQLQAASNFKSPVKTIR

| SMILES | IC50 (recombinant human CK2; Table 1) [nM] | IC50 (recombinant PIM-1; Table 1) [nM] | IC50 (K-562; [3]) [nM] | IC50 (MV-4-11; [4]) [nM] | IC50 (MDAMB231; [5]) [nM] | IC50 [1, 6] [nM] | IC50 [2, 7] [nM] | also measured |
| --- | --- | --- | --- | --- | --- | --- | --- | --- |
| COc1ccc(/C=C2\SC(=O)NC2=O)cc1-c1cncc(N2CCCNCC2)n1 | – | – | – | – | – | – | – | IC50 (recombinant human CK2; Table 6): 472 nM; inhibition at 2.5 µM (recombinant human PIM2; @ 2.5 uM, Table 6, read-out: PIM2: % inh @ 2.5 uM): 98.5% |
| CN1CCCN(c2cncc(-c3cccc(/C=C4\SC(=O)N(C)C4=O)c3)n2)CC1 | – | – | – | – | – | – | – | IC50 (recombinant human CK2; Table 5): > 5000 nM; IC50 (recombinant PIM-1; Table 5): 440 nM; IC50 (recombinant human PIM2; Table 5): 2350 nM |
| NC(=O)c1cccc(-c2ccc(/C=C3\SC(=S)NC3=O)o2)c1 | 4 | 4 | > 10000 | > 10000 | > 10000 | > 10000 | > 10000 | – |
| CN1CCCCC1CNC(=O)c1ccc(-c2ccc(/C=C3\SC(=S)NC3=O)o2)cc1 (centres unmarked) | 471 | 37 | > 10000 | > 10000 | > 10000 | > 10000 | > 30000 | – |
| O=C1NC(=O)/C(=C\c2ccc(-c3ccc(C(=O)O)cc3)o2)S1 | – | – | – | – | – | – | – | IC50 (recombinant human CK2; Table 2): 9 nM; IC50 (recombinant PIM-1; Table 2): 41 nM; IC50 (K-562; [8]): > 10000 nM; IC50 (MV-4-11; [9]): > 1000 nM; IC50 (MDAMB231; [10]): > 10000 nM; IC50 [1, 11]: > 10000 nM; IC50 [2, 12]: > 30000 nM |
| Cn1cncc1CNC(=O)c1ccc(-c2ccc(/C=C3\SC(=S)NC3=O)o2)cc1 | 108 | 35 | > 10000 | > 10000 | > 10000 | > 10000 | > 30000 | – |
| CCNC(=O)c1cccc(-c2ccc(/C=C3\SC(=S)NC3=O)o2)c1 | 264 | 28 | > 10000 | > 10000 | > 10000 | > 10000 | > 30000 | – |
| CN1CCCN(C(=O)c2cccc(-c3ccc(/C=C4/SC(=O)NC4=O)o3)c2)CC1 | – | – | – | – | – | – | – | IC50 (recombinant human CK2; Table 2): 11 nM; IC50 (recombinant PIM-1; Table 2): 111 nM; IC50 (K-562; [8]): > 10000 nM; IC50 (MV-4-11; [9]): > 1000 nM; IC50 (MDAMB231; [10]): > 10000 nM; IC50 [1, 11]: > 10000 nM; IC50 [2, 12]: > 30000 nM |
| COc1cc(OC)cc(C(=O)N2CCCN(c3cncc(-c4cc(/C=C5/SC(=O)NC5=O)ccc4F)n3)CC2)c1 | – | – | – | – | – | – | – | IC50 (recombinant human CK2; Table 5): 181 nM; IC50 (recombinant human PIM2; Table 5): 175 nM |
| O=C1NC(=S)S/C1=C\c1ccc(-c2cccc(C(=O)N3CC[C@@H](F)C3)c2)o1 | 26 | 40 | > 10000 | > 10000 | > 10000 | > 10000 | > 30000 | – |

Now from value to compound, other results behind:

| IC50 (recombinant human CK2; Table 1) [nM] | IC50 (recombinant PIM-1; Table 1) [nM] | IC50 (K-562; [3]) [nM] | IC50 (MV-4-11; [4]) [nM] | IC50 (MDAMB231; [5]) [nM] | IC50 [1, 6] [nM] | IC50 [2, 7] [nM] | SMILES | also measured |
| --- | --- | --- | --- | --- | --- | --- | --- | --- |
| 47 | 5 | 2890 | 406 | > 10000 | 2300 | > 30000 | CN1CCCN(C(=O)c2cccc(-c3ccc(/C=C4\SC(=S)NC4=O)o3)c2)CC1 | IC50 (recombinant human PIM2; Table 1): 13 nM |
| 266 | 146 | > 10000 | > 10000 | > 10000 | > 10000 | > 30000 | O=C1NC(=S)S/C1=C\c1ccc(-c2cccc(C(=O)NNc3ccnc4cc(Cl)ccc34)c2)o1 | – |
